The text below walks through data of BindingDB's records for patent US20240299360 (Jiangsu Hengrui Pharmaceuticals, 2024).

Several values for one entry are separate records, joined by “and”; a condition that tells them apart may be missing. Equal entries are not always repeated.

Assay [1] has as its target T1, A disintegrin and metalloproteinase with thrombospondin motifs 4 (Homo sapiens, UniProt O75173).
T1 sequence (O75173 whole entry): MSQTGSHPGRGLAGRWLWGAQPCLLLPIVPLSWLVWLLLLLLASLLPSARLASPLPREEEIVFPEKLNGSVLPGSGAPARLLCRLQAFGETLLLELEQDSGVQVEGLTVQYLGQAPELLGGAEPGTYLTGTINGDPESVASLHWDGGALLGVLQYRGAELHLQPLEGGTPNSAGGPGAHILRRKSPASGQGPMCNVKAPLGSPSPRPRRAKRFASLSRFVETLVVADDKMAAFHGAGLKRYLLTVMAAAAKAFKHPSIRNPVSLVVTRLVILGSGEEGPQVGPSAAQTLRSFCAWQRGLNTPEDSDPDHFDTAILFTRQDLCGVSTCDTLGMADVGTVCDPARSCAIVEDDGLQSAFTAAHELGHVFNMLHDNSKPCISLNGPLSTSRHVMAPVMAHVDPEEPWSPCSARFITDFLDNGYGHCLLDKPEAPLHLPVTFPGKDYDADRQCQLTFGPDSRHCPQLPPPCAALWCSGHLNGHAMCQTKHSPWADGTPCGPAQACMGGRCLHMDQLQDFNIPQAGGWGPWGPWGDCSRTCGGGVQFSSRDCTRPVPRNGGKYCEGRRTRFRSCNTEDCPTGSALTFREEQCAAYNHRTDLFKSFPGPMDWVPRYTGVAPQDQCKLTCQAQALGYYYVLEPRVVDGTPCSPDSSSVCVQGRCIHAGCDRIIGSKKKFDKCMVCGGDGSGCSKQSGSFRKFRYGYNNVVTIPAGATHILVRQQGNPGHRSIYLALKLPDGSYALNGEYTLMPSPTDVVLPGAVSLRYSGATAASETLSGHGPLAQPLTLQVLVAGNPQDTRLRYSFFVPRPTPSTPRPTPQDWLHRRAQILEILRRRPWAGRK
The assay can be described thus: In Vitro Fluorescence Assay of ADAMTS-4 or ADAMTS-5 Activity. Here is the method:
Table 1: A FRET (fluorescence resonance energy transfer) peptide was cleaved by recombinant ADAMTS-4 or ADAMTS-5 proteins into two separate fragments resulting in an increase of fluorescence signal which was quantified. The peptide was 5-FAM-TEGEARGSVILLK(5-TAMRA)K-NH2, customized from ANASPEC. ADAMTS-4 recombinant protein (catalog #4307-AD) and ADAMTS-5 recombinant protein (catalog #2198-AD) were purchased from R&D Systems. An assay buffer containing 50 mM HEPES pH 7.5, 100 mM NaCl, 5 mM CaCl2, 0.1% CHAPS and 5% Glycerol was prepared. A volume of 2.5 μl of compound in the assay buffer was dispensed to a 384-well plate, and 2.5 μl of ADAMTS-4 or ADAMTS-5 protein (final concentration in the reaction was 10 nM) was added. The compounds and proteins were pre-incubated at room temperature for 15 minutes. Then, 5 μl of substrate was added to each well. The final substrate concentrations for ADAMTS-4 and ADAMTS-5 were 15 μM and 8 μM, respectively. The fluorescence signal in each well was determined, after incubation at 37° C. for 3 hours, on a TECAN plate reader (Excitation, 490 nm; Emission, 520 nm).

In assay [2] the target is T2, A disintegrin and metalloproteinase with thrombospondin motifs 5 (Homo sapiens, UniProt Q9UNA0).
T2 sequence (Q9UNA0 whole entry): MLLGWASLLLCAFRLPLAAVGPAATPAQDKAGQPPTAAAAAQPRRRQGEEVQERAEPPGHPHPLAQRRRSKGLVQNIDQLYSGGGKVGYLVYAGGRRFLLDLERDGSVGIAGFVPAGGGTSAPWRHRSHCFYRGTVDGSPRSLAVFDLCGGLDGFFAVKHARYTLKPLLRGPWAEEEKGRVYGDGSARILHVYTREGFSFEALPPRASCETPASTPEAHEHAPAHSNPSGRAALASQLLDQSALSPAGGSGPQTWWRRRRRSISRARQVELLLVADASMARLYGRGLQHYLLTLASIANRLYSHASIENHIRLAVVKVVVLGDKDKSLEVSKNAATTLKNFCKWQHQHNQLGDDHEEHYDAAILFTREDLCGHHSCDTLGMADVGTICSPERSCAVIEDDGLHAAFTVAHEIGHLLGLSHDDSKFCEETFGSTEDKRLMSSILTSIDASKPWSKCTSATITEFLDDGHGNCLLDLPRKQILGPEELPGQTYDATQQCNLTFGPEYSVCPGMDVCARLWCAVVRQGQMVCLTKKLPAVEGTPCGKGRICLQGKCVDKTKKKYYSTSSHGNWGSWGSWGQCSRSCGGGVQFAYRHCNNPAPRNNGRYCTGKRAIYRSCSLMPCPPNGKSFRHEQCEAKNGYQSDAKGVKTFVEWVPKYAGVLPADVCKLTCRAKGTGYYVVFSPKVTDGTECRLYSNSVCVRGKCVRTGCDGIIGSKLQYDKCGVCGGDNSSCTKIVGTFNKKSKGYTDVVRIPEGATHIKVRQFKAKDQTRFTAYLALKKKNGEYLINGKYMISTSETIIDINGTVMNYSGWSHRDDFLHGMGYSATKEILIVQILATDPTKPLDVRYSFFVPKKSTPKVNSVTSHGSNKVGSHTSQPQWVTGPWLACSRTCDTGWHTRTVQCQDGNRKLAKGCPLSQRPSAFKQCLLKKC
The assay can be described thus: In Vitro ELISA (Enzyme-Linked Immunosorbent Assay) of ADAMTS-5 Activity. Here is the method:
Table 2: In this assay, the enzymatic activity of recombinant ADAMTS-5 protein (catalog #2198-AD, R&D Systems) was assayed with a protein substrate, the aggrecan IGD protein. The aggrecan IGD protein is a polypeptide connecting human aggrecan globular domains 1 and 2 (T331-G458) expressed in E. Coli with a C-terminal His-tag (catalog #30411000, BIOTEZ). The enzymatic product ARGSVIL-peptide was detected using an ELISA kit from BioTEZ (catalog #30510111). An assay buffer containing 50 mM HEPES pH 7.5, 100 mM NaCl, 5 mM CaCl2), 0.1% CHAPS and 5% Glycerol was prepared. Recombinant ADAMTS-5 protein was diluted to 0.3 nM in the assay buffer. […] and 10 μl of compound solution was transferred to each well of a 96-well plate and incubated at room temperature for 15 minutes. Substrate aggrecan-IGD was diluted to 100 nM with the assay buffer and 20 μl was added to each well. The plate was incubated at 37° C. for 45 minutes. After incubation, the newly generated epitope ARGSVIL-peptides were measured using the Aggrecanase Activity ELISA Assay Kit following the manufacturer's instructions. Then, 100 μl of stop solution was added and the absorbance of each well was read at 450 nm, using […] as reference on a TECAN plate reader.
(In an ELISA, binding on a coated surface is turned into a signal by an enzyme label.)

As usually defined, the IC50 is the concentration that gives 50% inhibition. Low readings indicate greater potency in that assay, high ones weaker potency in that assay. Consider `CC(C[C@@]1(C2CC2)NC(=O)NC1=O)C(=O)N1Cc2cc(Cl)c(Cl)cc2C1C` (some centres not stated) [US20240299360, Example 70], for which the IC50 in assay [1] is 0.02 µM; in assay [2], 0.026 µM and 0.083 µM.
